This is an account of results in ChEMBL document CHEMBL1240352, “Panel of prototypical raltegravir-resistant infectious molecular clones in a novel integrase-deleted cloning vector” (2010).

Where only a bound is given, the exact number is not on record here.

Common to all, as to format: functional
The test system of assay [1] is Human immunodeficiency virus 1. The assay is described as follows: Antiviral activity against Human immunodeficiency virus 1 clone 2253 harboring integrase S17N, V31I, I72V, L101I, T124A, K156N,V201I, I220M, D279G, R284G mutation transfected into human C8166 cells assessed as decrease in compound susceptibility relative to wild-type.
Assay [2] relates to Human immunodeficiency virus 1. Nature of the assay: Antiviral activity against Human immunodeficiency virus 1 clone 1288 harboring integrase M154L and E11D, V31I, L101I, K160R, F181L,V201I, T206S, D256E mutation transfected into human C8166 cells assessed as decrease in compound susceptibility relative to wild-type.
Assay [3] deals with Human immunodeficiency virus 1. The assay is described as follows: Antiviral activity against Human immunodeficiency virus 1 clone 4736_2 harboring integrase N155H,T97A and D6E, S17N, R20K, D25E, S39C, L45V,L101I, V201I, S119R, T124A, K160T, K211R, D288N mutation transfected into human C8166 cells assessed as decrease in compound susceptibility relative to wild-type.
In assay [4] the test system is Human immunodeficiency virus 1. The assay is described as follows: Antiviral activity against Human immunodeficiency virus 1 clone 4736_4 harboring integrase N155H, E92Q and D6E, S17N, R20K, D25E, S39C, L45V, L101I, T124A, K160T, V201I, K211R, D288N mutation transfected in human C8166 cells assessed as decrease in compound susceptibility relative to wild-type.
The test system of assay [5] is Human immunodeficiency virus 1. Nature of the assay: Antiviral activity against Human immunodeficiency virus 1 clone 4736_9 harboring integrase N155H, E92Q H51Y and D6E, S17N, R20K, D25E, S39C, D41H, L45V, L101I, T124A, K160T, V201I,K211R, D288N mutation transfected in human C8166 cells assessed as decrease in compound susceptibility relative to wild-type.
Assay [6] has as its system Human immunodeficiency virus 1. Nature of the assay: Antiviral activity against Human immunodeficiency virus 1 clone 4736_10 harboring integrase N155H, V151I, G163R and D6E, S17N, R20K, D25E, S39C, L45V, L101I, T124A, K160T, V201I, K211R, D288N mutation transfected in human C8166 cells assessed as decrease in compound susceptibility relative to wild-type.
The subject of assay [7] is Human immunodeficiency virus 1. Nature of the assay: Antiviral activity against Human immunodeficiency virus 1 clone 1556 harboring integrase Y143C, L74M, T97A, S230R, K7R, S17N, R20K, L101I, K111Q, T112K, S119R, T206S, D256E, V259I mutation transfected in human C8166 cells assessed as decrease in compound susceptibility relative to wild-type.
Assay [8] deals with Human immunodeficiency virus 1. Nature of the assay: Antiviral activity against Human immunodeficiency virus 1 clone 8070_1 harboring integrase G140S, Y143H,Q148H and K14R, L101I, T112A, G193E, D229E, D279G mutation in transfected in human C8166 cells assessed as decrease in compound susceptibility relative to wild-type.
Assay [9] concerns Human immunodeficiency virus 1. Nature of the assay: Antiviral activity against Human immunodeficiency virus 1 clone 8070_2 harboring integrase G140S, Q148H, K14R, L63I, L101I, T112A, G193E, D229E, D279G mutation transfected in human C8166 cells assessed as decrease in compound susceptibility relative to wild-type.
The subject of assay [10] is Human immunodeficiency virus 1. The assay is described as follows: Antiviral activity against Human immunodeficiency virus 1 clone 4378 harboring integrase E157Q V31I, V32I, S39C, I72V, L101I, K160Q, F181L, V201I, Q216H, A265V mutation transfected in human C8166 cells assessed as decrease in compound susceptibility relative to wild-type.

With `Cc1nnc(C(=O)NC(C)(C)c2nc(C(=O)NCc3ccc(F)cc3)c(O)c(=O)n2C)o1` [RALTEGRAVIR], the “fold change (FC)” value in assay [1] was 0.4; in assay [2], 1.06; in assay [3] it was 116; in assay [4], 96; in assay [5] it was 94; in [6] it was 48. In addition, the “fold change (FC)” value was more than 200 in [7], more than 200 in [8], more than 200 in [9] and 1.15 in [10].
